# According to patent US20110076230A1, “Novel Substituted Indoles” (priority 2008, published 2011):
# Target: human AD brain homogenates (Homo sapiens, UniProt P05067)
# Test: Tissue homogenate binding assay (competition with [3H]-DMAB)
# Settings: human AD brain (frontal cortex) tissue homogenate; radioligand [3H]-DMAB 1.5 nM; 90 minutes at room temperature
# Method: Homogenates from AD and non-AD human brain samples were assessed for their immunoreactivity to anti-Aβ antibody 6E10. The highest and lowest levels of 6E10 immunoreactivity were chosen for the AD group and the non-AD control group, respectively. Candidate Aβ compounds were initially selected based on their structural similarity to published amyloid ligands and then for high affinity in competing with [^3H]PIB binding to AD brain homogenates. These compounds were radiolabeled with [^3H] and tested for binding affinity to human AD brain homogenates as well as binding to human non-AD brain homogenates. [^3H]-DMAB (see structure below) was selected based from these candidates based on its binding affinity for human AD brain homogenates, and minimal binding to non-AD control homogenates. A low fraction of non-displaceable binding was also an important criterion.
# PET radiotracer candidate compounds were then selected based on their high affinity competition with [^3H]-DMAB in binding to AD brain homogenates. These PET radiotracer candidate compounds were tested to determine if they were effective PgP substrates. Those PET radiotracer candidate compounds with little PgP substrate activity were radiolabeled with [^3H] or [^18F] and tested for binding affinity to human AD brain homogenates as well as binding to human non-AD brain homogenates and in autoradiographic studies using human AD and non-AD brain slices. Candidate radioligands were selected based on their strong binding affinity for human AD brain homogenates, and minimal binding to non-AD control homogenates. A low fraction of non-displaceable binding was also an important criterion. Minimization of white matter binding was an important criterion.
# Postmortem frozen human brain samples from donors with clinical diagnosis of Alzheimer's diseases (AD) or normal control subjects (non-AD) were purchased from Analytical Biological Services Inc., at 701-4 Cornell Business Park, Wilmington, Del. […]
# [^3H]-DMAB was synthesized at a specific activity of ˜80 Ci/mmol. […] Total binding was defined in the absence of competing compound, and non-displaceable binding was determined in the presence of 1 μM unlabeled self block. […] Incubation was carried out at room temperature (25° C.) for 90 minutes, and then the assay samples were filtered onto GF/C filters using Skatron 12 well harvester, washing on setting 5−5−5 ((˜3×2 ml) ice cold buffer (PBS, pH 7.4). GF/C filter papers for the Skatron harvester were pre-soaked in 0.1% BSA for 1 hour at room temperature before use. Filters were punched into scintillation vials and counted in 2 mL Ultima Gold on Perkin Elmer Tri-Carb 2900TR for 1 minute. The data analysis was done with Prism software. All assays were done in triplicate, and in the laboratory designated for studies using human tissues.
# Sequence of human AD brain homogenates (P05067 672-711 limits assumed): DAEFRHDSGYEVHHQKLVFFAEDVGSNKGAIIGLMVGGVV
row,IC50 [nM],SMILES
1,245,Cc1ccc2cc(-c3ccc(-n4ccnc4)nc3)[nH]c2c1
2,40,CNc1ccc(-c2cc3ccc(Cl)cc3[nH]2)cn1
3,10,COc1ccc2[nH]c(-c3ccc(-n4cncn4)nc3)cc2c1
4,79,N#Cc1ccc2cc(-c3cnc4[nH]ccc4c3)[nH]c2c1
